Data: the NIST ThermoML archive (doi:10.1016/j.jct.2008.10.010)

Experiment: molar heat capacity at constant pressure; xn = mol fraction of the nth substance listed
Conditions: 101.3 kPa, Liquid, Small sample (50 mg) DSC

CCC(C)(C)O [2-methylbutan-2-ol] + CCCCCCC
Conditions | molar heat capacity at constant pressure [J/K/mol]
345.14 K, x1 = 0.0249 | 244.12
345.14 K, x1 = 0.0494 | 246.22
345.14 K, x1 = 0.1 | 253.28
345.14 K, x1 = 0.1547 | 260.94
345.14 K, x1 = 0.1999 | 266.5
345.14 K, x1 = 0.2993 | 275.63
345.14 K, x1 = 0.4051 | 282.19
345.14 K, x1 = 0.4986 | 286.41
345.14 K, x1 = 0.5981 | 289.46
345.14 K, x1 = 0.7015 | 291.51
345.14 K, x1 = 0.8023 | 291.94
345.14 K, x1 = 0.9139 | 291.66
345.14 K, x1 = 0.9609 | 290.76
346.15 K, x1 = 0.0061 | 244.11
346.15 K, x1 = 0.0249 | 244.51
346.15 K, x1 = 0.0494 | 246.51
346.15 K, x1 = 0.1 | 253.41
346.15 K, x1 = 0.1547 | 261
346.15 K, x1 = 0.1999 | 266.61
346.15 K, x1 = 0.2993 | 275.72
346.15 K, x1 = 0.4051 | 282.35
346.15 K, x1 = 0.4986 | 286.63
346.15 K, x1 = 0.5981 | 289.78
346.15 K, x1 = 0.7015 | 291.88
346.15 K, x1 = 0.8023 | 292.49
346.15 K, x1 = 0.9139 | 292.09
346.15 K, x1 = 0.9609 | 291.29
347.13 K, x1 = 0.0494 | 246.82
347.15 K, x1 = 0.9139 | 292.63
347.16 K, x1 = 0.0061 | 244.48
347.16 K, x1 = 0.0249 | 244.81
347.16 K, x1 = 0.1 | 253.4
347.16 K, x1 = 0.1547 | 261.01
347.16 K, x1 = 0.1999 | 266.57
347.16 K, x1 = 0.2993 | 275.89
347.16 K, x1 = 0.4051 | 282.48
347.16 K, x1 = 0.4986 | 286.83
347.16 K, x1 = 0.5981 | 290.05
347.16 K, x1 = 0.7015 | 292.26
347.16 K, x1 = 0.8023 | 292.88
347.16 K, x1 = 0.9609 | 291.82
348.14 K, x1 = 0.0061 | 244.95
348.14 K, x1 = 0.0249 | 245.23
348.14 K, x1 = 0.0494 | 247.05
348.14 K, x1 = 0.1 | 253.5
348.14 K, x1 = 0.2993 | 275.95
348.14 K, x1 = 0.4051 | 282.77
348.14 K, x1 = 0.4986 | 287.07
348.14 K, x1 = 0.5981 | 290.42
348.14 K, x1 = 0.7015 | 292.68
348.14 K, x1 = 0.8023 | 293.3
348.14 K, x1 = 0.9139 | 293.11
348.14 K, x1 = 0.9609 | 292.28
348.16 K, x1 = 0.1547 | 261.02
348.16 K, x1 = 0.1999 | 266.63
349.15 K, x1 = 0.0061 | 245.31
349.15 K, x1 = 0.0249 | 245.69
349.15 K, x1 = 0.0494 | 247.42
349.15 K, x1 = 0.1 | 253.6
349.15 K, x1 = 0.1547 | 261.07
349.15 K, x1 = 0.1999 | 266.66
349.15 K, x1 = 0.2993 | 276.06
349.15 K, x1 = 0.4051 | 282.91
349.15 K, x1 = 0.4986 | 287.38
349.15 K, x1 = 0.5981 | 290.79
349.15 K, x1 = 0.7015 | 293.13
349.15 K, x1 = 0.8023 | 293.78
349.15 K, x1 = 0.9139 | 293.7
349.15 K, x1 = 0.9609 | 292.9
350.15 K, x1 = 0.0061 | 245.7
350.15 K, x1 = 0.0494 | 247.73
350.15 K, x1 = 0.1999 | 266.71
350.15 K, x1 = 0.4986 | 287.48
350.15 K, x1 = 0.5981 | 290.98
350.15 K, x1 = 0.7015 | 293.35
350.15 K, x1 = 0.8023 | 294.18
350.15 K, x1 = 0.9139 | 294.04
350.15 K, x1 = 0.9609 | 293.31
350.16 K, x1 = 0.0249 | 245.9
350.16 K, x1 = 0.1 | 253.7
350.16 K, x1 = 0.1547 | 261.07
350.16 K, x1 = 0.2993 | 276.06
350.16 K, x1 = 0.4051 | 283.01
351.14 K, x1 = 0.0061 | 246.16
351.14 K, x1 = 0.0249 | 246.29
351.14 K, x1 = 0.0494 | 247.89
351.14 K, x1 = 0.1 | 253.68
351.14 K, x1 = 0.1547 | 261.02
351.14 K, x1 = 0.1999 | 266.6
351.14 K, x1 = 0.4051 | 283
351.14 K, x1 = 0.4986 | 287.61
351.14 K, x1 = 0.5981 | 291.23
351.14 K, x1 = 0.7015 | 293.67
351.14 K, x1 = 0.8023 | 294.44
351.14 K, x1 = 0.9139 | 294.48
351.14 K, x1 = 0.9609 | 293.76
351.16 K, x1 = 0.2993 | 276.1
352.15 K, x1 = 0.0061 | 246.53
352.15 K, x1 = 0.0249 | 246.7
352.15 K, x1 = 0.0494 | 248.24
352.15 K, x1 = 0.1 | 253.93
352.15 K, x1 = 0.1547 | 261.06
352.15 K, x1 = 0.1999 | 266.66
352.15 K, x1 = 0.2993 | 276.22
352.15 K, x1 = 0.4051 | 283.15
352.15 K, x1 = 0.4986 | 287.82
352.15 K, x1 = 0.5981 | 291.44
352.15 K, x1 = 0.7015 | 293.88
352.15 K, x1 = 0.8023 | 294.82
352.15 K, x1 = 0.9139 | 294.82
352.15 K, x1 = 0.9609 | 294.14
353.15 K, x1 = 0.0061 | 246.79
353.15 K, x1 = 0.0249 | 247.03
353.15 K, x1 = 0.0494 | 248.53
353.15 K, x1 = 0.1 | 253.91
353.15 K, x1 = 0.1547 | 260.99
353.15 K, x1 = 0.1999 | 266.57
353.15 K, x1 = 0.2993 | 276.2
353.15 K, x1 = 0.4051 | 283.18
353.15 K, x1 = 0.4986 | 287.86
353.15 K, x1 = 0.5981 | 291.63
353.15 K, x1 = 0.7015 | 294.17
353.15 K, x1 = 0.8023 | 295.16
353.15 K, x1 = 0.9139 | 295.27
353.15 K, x1 = 0.9609 | 294.55
